Results reported in EP0314302A2, “Herbicidal o-carbomethoxy-sulfonylureas” (E.I. DU PONT DE NEMOURS AND COMPANY, priority 1987, dated 1989).

Columns and labels:
[1] = tested on: Avena fatua; experiment: Test 1 greenhouse, preemergence; type: in vivo; details: 21 days, scale 0-100
Description: (§1) Seeds of Bromus tectorum, Kochia scoparia, Salsoa kali, Avena fatua, Convolvulus arvensis, Secale cereale, Setaria viridis and Triticum aestivum were placed in 26-cm plastic pans containing a pasteurized sandy loam soil (pH 6.5, 1% organic matter). Plantings were maintained in the greenhouse for 18-28 days at which time the postemergence treatments were applied using a nonphytotoxic solvent as the carrier for the herbicide. The preemergence segment of the test was seeded immediately before herbicide application using Bromus tectorum, Kochia scoparia, Polygonum convolvulus, Salsoa kali, Avena fatua, Convolvulus arvensis, Secale cereale, Setaria viridis, Aegilops cylindrica, Amaranthus retroflexus, Chenopodium album, Hordeum vulgare, Triticum aestivum, Sorghum bicolor, and Zea mays. All treatments were maintained in the greenhouse for an additional 21 days at which time visual assessment of weed control was determined using a scale of 0 to 100 for each species where 0 represented no control and 100 represented complete control.

[2] = tested on: Bromus tectorum; experiment: Test 1 greenhouse, preemergence; type: in vivo; details: 21 days, scale 0-100
Description: as §1

[3] = tested on: Narrowleaf panicum; experiment: Test 3 postemergence weed control; type: in vivo, P. maximum; details: 32 g/ha, scale 0-100
Description: Seeds of crabgrass (Digitaria spp), guinea grass (Panicum maximum) and narrowleaf panicum (P. maximum) were planted in 15-cm plastic pots. The weeds were treated postemergence with compound I, formulated in a non-phytotoxic solvent, when the plants had 3 or more leaves and had tillered. The degree of weed control was visually rated 17 days after compound application (DAT). Control ratings were based on a scale of 0 to 100 where 0 = no effect, 20 = minimal control and 100 = complete control.

[4] = tested on: Alfalfa; experiment: Test 7 postemergence; type: in vivo; details: scale 0-100
Description: (§2) Individual 11.4-cm plastic pots filled with planting medium were seeded with rape, wild radish (Raphanus raphanistruna). tansy mustard (Descurainia pinnata), ball mustard (Neslia paniculata), black mustard (Brassica nigra), yellow mustard, brown mustard, lentils, safflower, flax, sunflower, peanut, vetch, alfalfa, field bean, pea, violet (Viola spp), Kochia (Kochia spp), Russian thistle (Salsola spp), Matricaria spp, groundsel (Senecio spp), shepherdspurse (Capsella bursa-pastoris), nightshade (Solanum spp), sowthistle (Sonchus spp), sugar beet, wheat, "Bonanza" barley and "Morex" barley, Kentucky bluegrass (Poa pratensis), red clover (Trifolium pratense), dandelion (Taraxacum spp) and buckhorn plantain (Plantago lanceolata).
(§3) Plants were treated postemergence with the compound formulated with a non-phytotoxic carrier. Plants were visually rated 18 days after treatment (DAT). Response ratings were based on the scale of 0 to 100 where 0 = no effect, 20 = minimal injury and 100 = complete control.

[5] = tested on: Bonanza barley; experiment: Test 7 postemergence; type: in vivo; details: scale 0-100
Description: as §2, §3

[6] = tested on: Brown mustard; experiment: Test 7 postemergence; type: in vivo; details: scale 0-100
Description: as §2, §3

[7] = tested on: Field bean; experiment: Test 7 postemergence; type: in vivo; details: scale 0-100
Description: as §2, §3

[8] = tested on: Flax; experiment: Test 7 postemergence; type: in vivo; details: scale 0-100
Description: as §2, §3

[9] = tested on: Onicutal mustard; experiment: Test 7 postemergence; type: in vivo; details: scale 0-100
Description: as §2, §3

[10] = tested on: Peanut; experiment: Test 7 postemergence; type: in vivo; details: scale 0-100
Description: as §2, §3

[11] = tested on: Rape; experiment: Test 7 postemergence; type: in vivo; details: scale 0-100
Description: as §2, §3

[12] = tested on: Safflower; experiment: Test 7 postemergence; type: in vivo; details: scale 0-100
Description: as §2, §3

[13] = tested on: Sugar beet; experiment: Test 7 postemergence; type: in vivo; details: scale 0-100
Description: as §2, §3

[14] = tested on: Sunflower; experiment: Test 7 postemergence; type: in vivo; details: scale 0-100
Description: as §2, §3

[15] = tested on: Wheat; experiment: Test 7 postemergence; type: in vivo; details: scale 0-100
Description: as §2, §3

[16] = tested on: Yellow mustard; experiment: Test 7 postemergence; type: in vivo; details: scale 0-100
Description: as §2, §3

[17] = tested on: Sandbur; experiment: Test 9 postemergence; type: in vivo, Cenchrus echinatus; details: scale 0-100
Description: (§4) Plastic windowsill pots containing planting medium were seeded with bahiagrass, bindweed (Convolvulus spp), guinea grass (Panicum maximum), large crabgrass (Digitaria sanguinalis) and pigweed (Amaranthus spp). Individual 15-cm plastic pots contained sandbur (Cenchrus echinatus), Mikania cordata, Boston fern (Nephrolepis exalata), quackgrass (Agropyron repens), elephantgrass (Pennisetum purpureum) and sowthistle (Sonchus spp) plants.
(§5) Plants were treated postemergence with Compound I formulated in a non-phytotoxic solvent. Plants were visually rated 22 days after treatment (DAT). Injury and weed control ratings were based on the scale of 0 to 100 where 0 = no effect, 20 = minimal control and 100 = complete control.

[18] = tested on: Quackgrass; experiment: Test 9 postemergence; type: in vivo, Agropyron repens; details: scale 0-100
Description: as §4, §5

[19] = tested on: Grapes; experiment: Test 10 postemergence safety to crops and weed control; type: in vivo, Macedine grapes; details: scale 0-100
Description: (§6) The object of these tests was to evaluate the compound of this invention for postemergence safety to crops and weed control. Seedling and budded Macedine grapes were grown in 11.4-cm pots. Flax, green foxtail (Setaria viridis), "Morex" barley, wild oats (Avena fatua), "Era" wheat, annual ryegrass (Lolium multiflorum), wild radish (Raphanus raphanistrum), rape, sunflower, chickweed (Stellaria media) and wild buckwheat (Polygonum convolvulus) were seeded in windowsill pots.
(§7) The plants were sprayed postemergence with Compound I in a non-phytotoxic solvent. Plants were visually rated 15 and 27 days after treatment (DAT). Injury and weed control ratings were based on the scale of 0 to 100 where 0 = no effect, 20 minimal control and 100 = complete control.

[20] = tested on: Green foxtail; experiment: as above; type: in vivo, Setaria viridis; details: 16 g/ha, scale 0-100
Description: as §6, §7

Structure (SMILES): COC(=O)c1cccnc1S(=O)(=O)NC(=O)Nc1nc(OC)cc(OC)n1 [Compound I, 2-[[(4,6-dimethoxypyrimidin-2-yl)aminocarbonyl]aminosulfonyl]-3-pyridinecarboxylic acid, methyl ester]
- visual assessment of weed control ([1]; 4 g/ha): 0
- visual assessment of weed control ([1]; 8 g/ha): 40
- visual assessment of weed control ([1]; 16 g/ha): 50
- visual assessment of weed control ([1]; 32 g/ha): 60
- visual assessment of weed control ([1]; 64 g/ha): 90
- visual assessment of weed control ([1]; 125 g/ha): 100
- visual assessment of weed control ([2]; 4 g/ha): 50
- visual assessment of weed control ([2]; 8 g/ha): 70
- visual assessment of weed control ([2]; 16 g/ha): 80
- visual assessment of weed control ([2]; 32 g/ha): 90
- visual assessment of weed control ([2]; 64 g/ha): 90
- visual assessment of weed control ([2]; 125 g/ha): 100
- Control Rating 17 DAT [3]: 90
- Plant Injury Rating 18 DAT ([4]; 16 g/ha): 100
- Plant Injury Rating 18 DAT ([4]; 32 g/ha): 100
- Plant Injury Rating 18 DAT ([5]; 16 g/ha): 90
- Plant Injury Rating 18 DAT ([5]; 32 g/ha): 100
- Plant Injury Rating 18 DAT ([6]; 16 g/ha): 100
- Plant Injury Rating 18 DAT ([6]; 32 g/ha): 100
- Plant Injury Rating 18 DAT ([7]; 16 g/ha): 100
- Plant Injury Rating 18 DAT ([7]; 32 g/ha): 100
- Plant Injury Rating 18 DAT ([8]; 16 g/ha): 100
- Plant Injury Rating 18 DAT ([8]; 32 g/ha): 100
- Plant Injury Rating 18 DAT ([9]; 16 g/ha): 100
- Plant Injury Rating 18 DAT ([9]; 32 g/ha): 100
- Plant Injury Rating 18 DAT ([10]; 16 g/ha): 100
- Plant Injury Rating 18 DAT ([10]; 32 g/ha): 100
- Plant Injury Rating 18 DAT ([11]; 16 g/ha): 80
- Plant Injury Rating 18 DAT ([11]; 32 g/ha): 100
- Plant Injury Rating 18 DAT ([12]; 16 g/ha): 100
- Plant Injury Rating 18 DAT ([12]; 32 g/ha): 100
- Plant Injury Rating 18 DAT ([13]; 16 g/ha): 100
- Plant Injury Rating 18 DAT ([13]; 32 g/ha): 100
- Plant Injury Rating 18 DAT ([14]; 16 g/ha): 100
- Plant Injury Rating 18 DAT ([14]; 32 g/ha): 100
- Plant Injury Rating 18 DAT ([15]; 16 g/ha): 100
- Plant Injury Rating 18 DAT ([15]; 32 g/ha): 100
- Plant Injury Rating 18 DAT ([16]; 16 g/ha): 100
- Plant Injury Rating 18 DAT ([16]; 32 g/ha): 100
- Plant Injury Rating 22 DAT ([17]; 8 g/ha): 100
- Plant Injury Rating 22 DAT ([17]; 16 g/ha): 100
- Plant Injury Rating 22 DAT ([17]; 32 g/ha): 100
- Plant Injury Rating 22 DAT ([18]; 8 g/ha): 70
- Plant Injury Rating 22 DAT ([18]; 16 g/ha): 90
- Plant Injury Rating 22 DAT ([18]; 32 g/ha): 100
- Plant Injury Rating 27 DAT ([19]; Budded grapes, 1 g/ha): 0
- Plant Injury Rating 27 DAT ([19]; Budded grapes, 2 g/ha): 0
- Plant Injury Rating 27 DAT ([19]; Budded grapes, 4 g/ha): 0
- Plant Injury Rating 27 DAT ([19]; Budded grapes, 8 g/ha): 0
- Plant Injury Rating 27 DAT ([19]; Budded grapes, 16 g/ha): 10
- Plant Injury Rating 27 DAT ([19]; Budded grapes, 32 g/ha): 10
- Plant Injury Rating 27 DAT ([19]; Seedling grapes, 1 g/ha): 0
- Plant Injury Rating 27 DAT ([19]; Seedling grapes, 2 g/ha): 0
- Plant Injury Rating 27 DAT ([19]; Seedling grapes, 4 g/ha): 0
- Plant Injury Rating 27 DAT ([19]; Seedling grapes, 8 g/ha): 10
- Plant Injury Rating 27 DAT ([19]; Seedling grapes, 16 g/ha): 20
- Plant Injury Rating 27 DAT ([19]; Seedling grapes, 32 g/ha): 20
- Plant Injury Rating 15 DAT [20]: 100
